Measured values reported in US11034725B2, “Compositions and methods for treating cardiovascular disease” (Genentech, Inc., priority 2016, dated 2021).
“Also recorded” adds a separate entry of the source. Where two headings read alike, the source gives them in different places. Bridge positions count the residues as written; N and C are the ends. Square brackets hold non-standard residues; d marks the D form. Peptide text beside a SMILES is read from it. hArg = N=C(N)NCCCC[C@H](N)C(=O)O

Columns and labels:
PCSK9 [1] = biological target: T1, PCSK9 (Homo sapiens, UniProt Q8NBP7); assay: PCSK9/EGF(A) TR-FRET binding assay
T1 sequence (Q8NBP7 153-692): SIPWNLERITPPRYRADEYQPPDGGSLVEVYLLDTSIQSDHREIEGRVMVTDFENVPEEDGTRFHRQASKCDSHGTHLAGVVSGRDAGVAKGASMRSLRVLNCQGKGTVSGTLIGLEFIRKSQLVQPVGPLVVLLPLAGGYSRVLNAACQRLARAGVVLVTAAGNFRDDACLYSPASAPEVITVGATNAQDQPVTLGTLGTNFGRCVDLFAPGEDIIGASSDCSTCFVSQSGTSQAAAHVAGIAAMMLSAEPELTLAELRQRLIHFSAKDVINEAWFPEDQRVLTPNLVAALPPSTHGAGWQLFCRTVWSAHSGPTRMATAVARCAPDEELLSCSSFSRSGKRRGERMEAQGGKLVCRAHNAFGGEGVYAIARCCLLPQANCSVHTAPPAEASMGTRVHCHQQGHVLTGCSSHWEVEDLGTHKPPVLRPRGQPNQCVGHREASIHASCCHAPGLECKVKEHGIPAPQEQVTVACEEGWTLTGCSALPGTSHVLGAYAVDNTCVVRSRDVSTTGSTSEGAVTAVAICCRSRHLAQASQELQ
T1 sequence (Q8NBP7 31-152 partner limits assumed): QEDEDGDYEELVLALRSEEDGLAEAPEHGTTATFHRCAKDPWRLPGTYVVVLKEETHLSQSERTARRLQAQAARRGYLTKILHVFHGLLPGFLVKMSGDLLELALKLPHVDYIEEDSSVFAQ

PCSK9Δhelix [2] = biological target: T2, PCSK9Δhelix (Homo sapiens, UniProt Q8NBP7); assay: SPR affinity measurements of peptide binding (Example 8); details: for Kd: Table 10, binding to PCSK9Δhelix
T2 construct: Human PCSK9 construct M1-Q692 with an engineered TEV site (residue deletion Y166, R167); made in house; host or cells: CHO
T2 sequence (Q8NBP7 with tags, fused parts or gaps limits assumed): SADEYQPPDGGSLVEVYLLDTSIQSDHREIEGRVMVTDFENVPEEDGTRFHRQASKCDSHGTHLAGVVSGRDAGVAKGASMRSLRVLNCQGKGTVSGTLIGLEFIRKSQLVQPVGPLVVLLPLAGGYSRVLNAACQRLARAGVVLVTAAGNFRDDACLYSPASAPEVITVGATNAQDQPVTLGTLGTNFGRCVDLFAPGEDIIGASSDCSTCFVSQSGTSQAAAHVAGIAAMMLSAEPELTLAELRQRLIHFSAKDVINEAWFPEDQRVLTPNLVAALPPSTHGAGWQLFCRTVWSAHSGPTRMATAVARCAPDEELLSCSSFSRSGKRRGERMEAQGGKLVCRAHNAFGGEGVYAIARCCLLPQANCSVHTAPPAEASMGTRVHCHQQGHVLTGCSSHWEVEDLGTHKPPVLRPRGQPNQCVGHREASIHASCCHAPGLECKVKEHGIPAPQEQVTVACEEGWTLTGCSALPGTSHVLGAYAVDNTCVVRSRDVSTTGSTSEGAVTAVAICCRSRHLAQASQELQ
T2 sequence (Q8NBP7 31-152 partner limits assumed): as the sequence (Q8NBP7 31-152 partner limits assumed) above
Protocol: A Biacore™ T100 or Biacore™ 8K was adjusted to 20° C. The system was primed into assay buffer which consisted of 25 mM HEPES, pH 7.5, 0.15 M NaCl, 0.005% (v/v) Tween® 20, 0.2 mM tris(2-carboxyethyl)phosphine and optionally contained 0.1% (w/v) carboxymethylated dextran (average MW 10 kDa) and 0.2% (w/v) PEG (average MW 3450 Da) in order to reduce potential non-specific binding. Peptides were assayed by capturing fresh PCSK9 or PCSK9Δhelix after each binding regeneration cycle by exploiting a histidine tag and an NTA-sensor chip. The surface was charged with (His)8-tagged PCSK9 (approximately 800 RU captured). […] Compound 19 and Compound 20 were assayed in six serial two-fold dilutions from 100 nM to 3.1 nM. All peptides were analyzed in duplicate by serial injection (50 μL/min for 1 min) of peptide dilution from low to high concentration. The surface was then stripped of target by injecting 0.5 M EDTA, pH 8.0. This sequence was repeated for each peptide binding cycle and blank control cycles.
All SPR data was recorded in duplicate for five, or more serial dilutions, except for the two fusion peptides, which produced extremely low fitting error. Multicycle data (i.e. separate curves for each concentration) and single cycle data (i.e. single curve with serial injection of each concentration) were double referenced and fitted to an interaction model using BIAevaluation software. Peptide binding to PCSK9 produced deviations from a simple 1:1 binding interaction model that required application of a two-state model for determination of Kd while interactions with PCSK9Δhelix conformed well to simple 1:1 binding. Kinetic curvature was poorly defined for rapidly dissociating peptides and in these cases Kd was estimated from a steady-state dose response plot. Kd values were reported with associated standard error, a measure of confidence in that parameter value.

His-EGF(A)-Fc = His-EGF(A)-Fc TR-FRET counterscreen
PCSK9Δhelix [3] = biological target: T2, PCSK9Δhelix; assay: PCSK9Δhelix/Ab20 TR-FRET binding assay
PCSK9Δhelix [4] = biological target: T2, PCSK9Δhelix; assay: Surface plasmon resonance biosensor-based affinity analysis (Example 4); type: binding; details: Table 7, Target PCSK9Δhelix, SPR at 20° C.; read-out: Kd
Protocol: All assays were conducted at an analysis temperature of 20° C. Samples were held at 10° C. in the sample rack to prevent denaturation of PCSK9 proteins. A biacore T100 from GE HealthCare and a SensiQ Pioneer FE were employed. All reagents were obtained from Sigma-Aldrich unless otherwise stated. The full set of peptides was analyzed using three closely related biosensor protocols that were expected to report equivalent affinity/kinetic parameters. The need for multiple protocols was related to the aggregation potential of some peptides. The buffer composition was largely conserved other than the addition of solubilizers such as dimethylsulfoxide (DMSO), 10 kDa polyvinylpyrrolidone (PVP) and 10 kDa carboxymethylated dextran (CM dextran).
A Series S NTA sensor chip was docked in the Biacore T100 biosensor system. The system was primed into running buffer (i.e. 50 mM HEPES, 0.15 M NaCl, 0.005% T20, pH 7.5). Hexahistidine-tagged proteins (“hexahistidine” disclosed as SEQ ID NO: 297) (i.e. PCSK9 or PCSK9Δhelix) were affinity captured onto separate sensing channels where at least one sensing surface remained uncoated in order to be applied as a referencing sensing surface. Compound samples were prepared in running buffer and injected. All affinity bound complexes were then removed before reloading each protein in order to test the next sample. Each sample cycle therefore consisted of five sequential injections that were repeated for each test sample as follows.
Injected sample using high quality injection mode. […] For these compounds the entire sample cycle consisting of five serial injections was repeated for each dilution. This sample cycle was a repeated sequence that is executed for each sample in the sample table.
This method was identical to method 1 except an alternative injection mode designated as single cycle kinetics (named by the manufacturer) was employed allowing a full dilution series to be completed during each sample cycle by replacing a single compound dilution injection with five sequential injections of increasing concentration. The resulting sensorgram (i.e. response curve) contained five binding-dissociation phases each associated with each injected compound dilution. The activation, capture and regeneration injections remained unchanged. […] Also CM dextran (Sigma-Aldrich product number 86524) was added to all buffers in the assay to a final concentration of 2 mg/mL in order to further lower non-specific binding to the surface. […] All recorded binding curves were automatically double referenced and fitted with a 1:1 model using BIAevaluation analysis software from GE HealthCare.
This instrument is analogous to Biacore AB biosensors in terms of surface chemistry, flow injection analysis and methodologies that can be employed except that it also provides a method to titrate compounds over the sensing surfaces.

PCSK9 [5] = biological target: T1, PCSK9; assay: PCSK9/LDLR-Fc TR-FRET assay (LDLR assay); type: binding; details: Table 11, LDLR-Fc, average ±S.D. of three experiments
Protocol: In black 1536-well assay plates (MaKO, Aurora® Microplates, Whitefish, Mont.), 40 nL of peptide in DMSO were preincubated with 2 μL His-tagged PCSK9 plus anti-His-allophycocyanin in assay buffer (50 mM Tris-HCl, pH 7.5, 150 mM NaCl, 2 mM CaCl2, 0.01% Tween®-20, 0.1% bovine gamma globulins, and protease inhibitor cocktail) for 30 min. Then 2 μL of Fc-tagged ligand and anti-Fc-europium in assay buffer were added and allowed to incubate for 2 h. The PCSK9 and ligand conditions for each assay are as follows: 10 nM C-terminal (His)8-tagged PCSK9 (“(His)8” disclosed as SEQ ID NO: 304) and 12 nM EGF(A)-Fc for the EGF(A) assay, 10 nM C-terminal (His)8-tagged PCSK9 (“(His)8” disclosed as SEQ ID NO: 304) and 2.5 nM LDLR-Fc for the LDLR assay, 1.25 nM C-terminal (His)8-tagged PCSK9Δhelix (“(His)8” disclosed as SEQ ID NO: 304) and 0.75 nM Ab20 for the Ab20 assay, and 2 nM His-EGF(A)-Fc alone for the counterscreen. In all assays, anti-His-allophycocyanin and anti-Fc-europium were used at 20 nM and 2 nM, respectively. Fluorescence was measured with excitation at 340 nm and emission at 671 nm and 618 nm. The TR-FRET ratio was calculated as fluorescence at 671 nm/fluorescence at 618 nm. The ratios were normalized to controls and plotted against peptide concentration to determine IC50 values (Screener Analyzer, Genedata, Basel, CH). The peptides were evaluated in three separate experiments per assay with 10-point titrations and n=2 per concentration. The values presented are the average ±S.D. of three independent experiments.

[6] = biological target: T3, PCSK9-R167A:R215A:R218A (PCSK9-AAA) (Homo sapiens, UniProt Q8NBP7, R167A/R215A/R218A); assay: FXIa cleavage assay of the P′ helix of PCSK9-AAA; type: biochemical; details: immunoblot with anti-N-terminal peptide antibody
T3 construct: made in house; host or cells: CHO (transient)
T3 sequence (Q8NBP7 153-692 R167A/R215A/R218A): as the sequence (Q8NBP7 153-692) above, with R15A, R63A, R66A counted along it
Protocol: The PCSK9-AAA mutant (2.6 μM) was incubated with 50 nM FXIa (Haematologic Technologies) in Tris buffer (50 mM Tris, 150 mM NaCl, 4 mM CaCl2, pH 8.0) at room temperature for the indicated time periods. […] After SDS-PAGE of the samples, proteins were transferred to a nitrocellulose membrane using iBlot (Invitrogen). Proteins were then probed with a polyclonal rabbit antibody (1:3000) raised against the PCSK9 N-terminal peptide (^153[…]^168 (SEQ ID NO: 5)), followed with HRP-conjugated donkey anti-rabbit antibody (1:5000, GE Healthcare) using iBind (Invitrogen). PCSK9 signals were detected by ECL (GE Healthcare) and visualized by autoradiography.
Proteins were then probed with a polyclonal rabbit antibody (1:3000) raised against the PCSK9 N-terminal peptide (^153[…]^168 (SEQ ID NO: 5)), followed with HRP-conjugated donkey anti-rabbit antibody (1:5000, GE Healthcare) using iBind (Invitrogen). PCSK9 signals were detected by ECL (GE Healthcare) and visualized by autoradiography.

[7] = TR-FRET, Example 7, read-out: PCSK9/EGF(A) IC50
[8] = TR-FRET, Example 7, read-out: PCSK9Δhelix/Ab20 IC50
[9] = Table 10, average ±S.D. of three experiments, read-out: Ab20 IC50

Compound	IC50 (PCSK9 [1]; [7]) [µM]	Kd (PCSK9Δhelix [2]) [µM]	IC50 (His-EGF(A)-Fc; counterscreen, Example 7) [µM]	IC50 (PCSK9Δhelix [3]; [8]) [µM]	IC50 (PCSK9Δhelix [3]; [9]) [µM]	Kd (PCSK9Δhelix [4]) [µM]	effect on FXIa-mediated cleavage of the P′ helix of PCSK9-AAA [6]	other results
Ac-WNLVRIGLLR-NH2 [Compound 53]	> 50	14	> 50	33.1	52.4 ± 3.4	33.8	–	reduction of binding affinity (PCSK9Δhelix [2]; Table 10, elimination of Pro4): 10 fold
Ac-DLMPWNLVRIGLLR-NH2 [Compound 35]	> 50	1.38	> 50	4.8	7.9 ± 0.1	–	–	–
CC[C@H](C)[C@H](NC(=O)[C@H](CCCCNC(=N)N)NC(=O)[C@@H](NC(=O)[C@H](CC(C)C)NC(=O)[C@H](CC(N)=O)NC(=O)[C@H](Cc1c[nH]c2ccccc12)NC(=O)CNC(=O)[C@@H]1CCCN1C(=O)[C@H](Cc1ccc(O)cc1)NC(=O)[C@H](CO)NC(=O)[C@H](CC(=O)O)NC(C)=O)C(C)C)C(=O)NCC(=O)N[C@@H](CC(C)C)C(=O)N[C@@H](CC(C)C)C(=O)N[C@@H](CCCNC(=N)N)C(N)=O [Compound 230] (Ac-DSYPGWNLV[hArg]IGLLR-NH2)	–	–	–	–	–	–	–	IC50 (PCSK9 [5]): > 50 µM; IC50 (PCSK9 [1]; TR-FRET, Table 8E, additional compounds, read-out: PCSK9/EGF(A) IC50): 2.3 µM; IC50 (PCSK9 [1]; Table 11, average ±S.D. of three experiments, read-out: EGF(A) IC50): 24.2 ± 0.8 µM; IC50 (His-EGF(A)-Fc; TR-FRET counterscreen, Table 8E, additional compounds): ≥ 50 µM; IC50 (PCSK9Δhelix [3]; TR-FRET, Table 8E, additional compounds, read-out: PCSK9Δhelix/Ab20 IC50): 24 µM; IC50 (PCSK9Δhelix [3]; Table 11, average ±S.D. of three experiments, read-out: Ab20 IC50): 2.42 ± 0.2 µM
Ac-TVATSAEEYLLWV-NH2 [Pep2-8-ctrl, reference compound]	–	–	–	–	–	–	did not prevent cleavage	effect on FXIa-mediated cleavage of the P′ helix of PCSK9-AAA ([6]; listed as control peptide): did not inhibit cleavage
Ac-MPWNLVRIGLLR-NH2 [Compound 51]	> 50	1.4	> 50	4.69	6.6 ± 0.3	2.7	–	–
CC[C@H](C)[C@@H]1NC(=O)[C@H](CCCNC(=N)N)NC(=O)[C@H](CCC(N)=O)NC(=O)[C@H](CC(C)C)NC(=O)[C@H](CC(N)=O)NC(=O)[C@H](Cc2c[nH]c3ccccc23)NC(=O)[C@@H]2CCCN2C(=O)[C@H]([C@@H](C)CC)NC(=O)[C@H](Cc2ccccc2)NC(=O)[C@@H](NC(=O)CNC(=O)[C@H](CO)NC(C)=O)CSSC[C@@H](C(N)=O)NC(=O)[C@H](CC(C)C)NC(=O)[C@H](CC(C)C)NC(=O)CNC1=O [Compound 29] (Ac-SGCFIPWNLQRIGLLC-NH2; disulfide 3-16)	–	–	–	–	–	–	accelerated the cleavage reaction; also recorded: able to increase the FXIa-mediated cleavage; also recorded: strongly accelerated the cleavage	IC50 (PCSK9 [1]; TR-FRET, Table 8D, disulfide-cyclized extension peptides, read-out: PCSK9/EGF(A) IC50): > 50 µM; IC50 (His-EGF(A)-Fc; TR-FRET counterscreen, Table 8D, * = some inhibition at highest concentrations, not sufficient to fit an IC50): > 50 µM; IC50 (PCSK9Δhelix [3]; TR-FRET, Table 8D, disulfide-cyclized extension peptides, read-out: PCSK9Δhelix/Ab20 IC50): 1.9 µM
